Assay results published in patent US20220218781A1, “COMPOSITION FOR ENHANCEMENT OF BIOAVAILABILITY OF PHYTOCHEMICALS AND PROCESS FOR PREPARATION THEREOF” (OLENE LIFE SCIENCES PRIVATE LIMITED, priority 2019, published 2022).

Assay: Comparative self-dispersion study in water
Type: physicochemical
Settings: without mechanical stirring, test product vs. standard unformulated reference product
Description: A comparative self-dispersion study was carried out between the ‘Composition of Example 1 (Test product)’ and ‘Standard unformulated lutein extract (Reference product)’.
A comparative self-dispersion study was carried out between the ‘Composition of Example 13 (Test product)’ and ‘Standard unformulated Boswellia extract (Reference product)’.
A comparative self-dispersion study was carried out between the ‘Composition of Example 16 (Test product)’ and ‘Standard unformulated Pepper extract (Reference product)’.
A comparative self dispersion study was carried out between the ‘Composition of Example 22 (Test product)’ and ‘Standard unformulated Coenzyme Q10 Extract (Reference product)’.
A comparative self dispersion study was carried out between the ‘Composition of Example 25 (Test product)’ and ‘Standard unformulated Palmitoylethanolamide (Reference product)’. The dispersion profile is given in FIG. 7A (test product) and FIG. 7B (reference product).

self-dispersion profile: non-dispersible
Structure (SMILES): COC1=C(OC)C(=O)C(C/C=C(\C)CC/C=C(\C)CC/C=C(\C)CC/C=C(\C)CC/C=C(\C)CC/C=C(\C)CC/C=C(\C)CC/C=C(\C)CC/C=C(\C)CCC=C(C)C)=C(C)C1=O [Coenzyme Q10]
